Assay results taken from US3980794A, “Method for promoting growth of poultry with 3-(5-nitro-2-imidazolyl)pyrazoles” (Eli Lilly and Company, priority 1975, dated 1976).
Converted amounts (≈) assume the structure as drawn. Where two headings read alike, the source gives them in different places.

Legend:
Type in all cases: cell-based
[1] = tested on: Clostridium perfringens 81; test: microbe, parasite or virus in culture; settings: Clostridium perfringens, 81, 24 h, read-out: 24 Hr. Minimum Inhibitory Concentration
Clostridium ramosum 1313 = test: Susceptibility of anaerobic bacteria, agar dilution; settings: read-out: 24 Hr. Minimum Inhibitory Concentration
[2] = tested on: Fusobacterium symbiosum 1470; test: as above; settings: read-out: 24 Hr. Minimum Inhibitory Concentration
[3] = tested on: Bacteroides fragilis sp. fragilis 1877; test: as above; settings: 24 h, read-out: 24 Hr. Minimum Inhibitory Concentration
[4] = tested on: Bacteroides fragilis sp. vulgatus 1563; test: as above; settings: 24 h, read-out: 24 Hr. Minimum Inhibitory Concentration
[5] = tested on: Clostridium septicum 1128; test: as above; settings: 24 h, read-out: 24 Hr. Minimum Inhibitory Concentration
Protocol: (§1) The susceptibility of anaerobic bacteria, both gram positive and gram negative, to a representative number of the novel compounds of this application was determined using the agar dilution method. The bacteria used were isolated from patients hospitalized at the Indiana University Medical Center. The isolates were identified in the anaerobe laboratory of the Medical Center by the criteria established by Dowell et al., Laboratory Methods in Anaerobic Bacteriology. Public Health Serv. Publ. No. 1803 (1968) [Center for Disease Control, Atlanta, Ga.]; and by Smith et al., The Pathogenic Anaerobic Bacteria, pages 96-136 (1968) [Charles C. Thomas, Publisher, Springfield, Ill.]. All the organisms were maintained in chopped meat glucose medium (Scott Labs) at room temperature.
(§2) The method used for the agar dilution tests was based on the studies of Sutter et al., Antimicrob. Ag. Chemother. 3, 188-193 (1973). The strains of anaerobic bacteria were grown in 16 × 120 mm. tubes for 16 to 18 hours in Thioglycolate medium without indicator--135C (Becton, Dickinson and Co.), to which was added 5 mcg. of hemin per milliliter prior to autoclaving, plus 1 mg. of sodium bicarbonate and 0.1 mcg. of filter-sterilized menadione per milliliter after autoclaving. The growth tubes for the bacteria Veillonella alcalescens were additionally supplemented with 5 mg. of sodium lactate per milliliter. The strains were adjusted to the turbidity of the No. 1 McFarland standard in Thioglycolate medium without indicator--135C containing an additional 0.13 percent Bacto-agar (Difco). Each strain was then applied to the surface of the petri plate (100 mm. × 15 mm.) by means of a replicator.
(§3) For the agar dilution studies, two-fold dilutions of the test compounds were prepared in deionized water to which was then added laked sheep blood and filter-sterilized menadione so the concentrations after the agar dilution were 5 percent and 10 mcg./ml. respectively. An equal volume of double strength Brucella agar (Becton, Dickinson and Co.) was mixed with each dilution in a water bath held at 50°C. and then poured onto the petri plates.
(§4) All of the procedures were done inside a plastic glove box, except for the incubation of the growth tubes and the pouring of the plates. After the plates hardened, they were put inside the glove box for a minimum of two hours before they were inoculated. Generally, the glove box procedures of Aranki et al., Applied Microbiology 17, 568-576 (1969), were followed, but the following modifications were used. Dry materials were introduced into the glove box by evacuating the lock to 28 inches of mercury and filling once with nitrogen gas, followed by evacuating in the same manner and filling with an 80 percent nitrogen plus 10 percent CO2 plus 10 percent hydrogen gas mixture. Liquid media and agar plates were introduced into the glove box by evacuating the lock to 10 inches of mercury and filling with gas four times. The nitrogen gas was used to fill the lock for the first two cycles of evacuation, with the gas mixture described above used for the final two fillings.
(§5) All the plates were incubated at 37°C. in Gas Pak jars (Becton, Dickinson and Co.) containing palladium-coated alumina catalysts (reactivated after each use). The results of the agar dilution tests were read after about 24 hours of incubation. The minimum inhibitory concentration (MIC) was recorded as the lowest concentration of test compound at which there was no growth.
(§6) The results of these in vitro tests are recorded in Charts 11 and 12 which follow. The test compounds are identified in the same manner as in the previous experiments. The antibiotics cephalothin and erythromycin were also run simultaneously with the novel compounds of this application, for comparison purposes, and the results are included in Charts 11 and 12 below.

[6] = tested on: Clostridium septicum bovine; test: as above; settings: 24 h, read-out: 24 Hr. Minimum Inhibitory Concentration
Protocol: as §1, §2, §3, §4, §5, §6

[7] = tested on: Propionibacterium acnes 79; test: as above; settings: read-out: 24 Hr. Minimum Inhibitory Concentration
[8] = tested on: Peptococcus anaerobius 1428; test: as above; settings: 24 h, read-out: 24 Hr. Minimum Inhibitory Concentration
[9] = tested on: Propionibacterium acnes 44; test: as above; settings: read-out: 24 Hr. Minimum Inhibitory Concentration
[10] = tested on: Clostridium innocuum 1373; test: as above; settings: read-out: 24 Hr. Minimum Inhibitory Concentration
[11] = tested on: Bacteroides fragilis sp. thetaiotaomicron 1438; test: as above; settings: 24 h, read-out: 24 Hr. Minimum Inhibitory Concentration
Actinomyces bovis 13684 = test: as above; settings: read-out: 24 Hr. Minimum Inhibitory Concentration
[12] = tested on: Veillonella alcalescens 1; test: as above; settings: read-out: 24 Hr. Minimum Inhibitory Concentration
[13] = tested on: Eubacterium aerofaciens 1235; test: as above; settings: read-out: 24 Hr. Minimum Inhibitory Concentration
[14] = tested on: Bacteroides fragilis sp. vulgatus 1211; test: as above; settings: 24 h, read-out: 24 Hr. Minimum Inhibitory Concentration
[15] = tested on: Bacteroides fragilis sp. fragilis 1936B; test: as above; settings: 24 h, read-out: 24 Hr. Minimum Inhibitory Concentration
[16] = tested on: Peptostreptococcus intermedius 1264; test: as above; settings: read-out: 24 Hr. Minimum Inhibitory Concentration
[17] = tested on: Fusobacterium necrophorum 13859; test: as above; settings: read-out: 24 Hr. Minimum Inhibitory Concentration
[18] = Thomasclavelia ramosa, 24 h, Clostridium ramosum 1313
[19] = 24 h, Fusobacterium symbiosum 1470
[20] = Bacteroides fragilis sp. fragilis 1877
[21] = Bacteroides fragilis sp. vulgatus 1563
[22] = Cutibacterium acnes, 24 h, Propionibacterium acnes 79
[23] = Cutibacterium acnes, 24 h, Propionibacterium acnes 44
[24] = 24 h, Clostridium innocuum 1373
[25] = Bacteroides fragilis sp. thetaiotaomicron 1438
[26] = Veillonella parvula, 24 h, Veillonella alcalescens 1
[27] = Collinsella aerofaciens, 24 h, Eubacterium aerofaciens 1235
[28] = Bacteroides fragilis sp. vulgatus 1211
[29] = Bacteroides fragilis sp. fragilis 1936B
[30] = 24 h, Peptostreptococcus intermedius 1264
[31] = 24 h, Fusobacterium necrophorum 13859
[32] = Thomasclavelia ramosa, 1313, 24 h
[33] = [Clostridium] innocuum, 1373, 24 h
[34] = Collinsella aerofaciens, 1235, 24 h
[35] = Fusobacterium necrophorum, 13859, 24 h

Row | Compound | MIC [1] | MIC (Clostridium ramosum 1313; [18]) | MIC [2, 19] | MIC [5] | MIC [6] | MIC ([8]; Peptococcus anaerobius 1428) | MIC [9, 23] | MIC [12, 26] | MIC [15, 29] | MIC [16, 30] | MIC ([2]; Fusobacterium, 1470, 24 h) | MIC ([3]; Bacteroides fragilis) | MIC ([4]; Bacteroides fragilis) | MIC ([7]; Cutibacterium acnes, 79, 24 h) | MIC [10, 33] | MIC ([11]; Bacteroides fragilis) | MIC (Actinomyces bovis 13684; Actinomyces bovis, 13684, 24 h) | MIC [13, 34] | MIC ([14]; Bacteroides fragilis) | MIC [17, 35] | also measured
1 | CCNc1cc(-c2ncc([N+](=O)[O-])n2C)nn1C [Compound 11A, 5-(ethylamino)-1-methyl-3-(1-methyl-5-nitro-2-imidazolyl)pyrazole] | 0.03 µg/mL (≈ 0.12 µM) | 0.5 µg/mL (≈ 2 µM) | < 0.03 µg/mL | 0.06 µg/mL (≈ 0.24 µM) | 0.06 µg/mL (≈ 0.24 µM) | 1 µg/mL (≈ 4 µM) | 8 µg/mL (≈ 32 µM) | 1 µg/mL (≈ 4 µM) | 2 µg/mL (≈ 7.99 µM) | 8 µg/mL (≈ 32 µM) | – | – | – | – | – | – | – | – | – | – | MIC [3, 20]: 0.06 µg/mL (≈ 0.24 µM); MIC [4, 21]: < 0.03 µg/mL; MIC [7, 22]: < 0.03 µg/mL; MIC [10, 24]: 0.125 µg/mL (≈ 0.499 µM); MIC [11, 25]: 0.06 µg/mL (≈ 0.24 µM); MIC (Actinomyces bovis 13684; 24 h, Actinomyces bovis 13684): 2 µg/mL (≈ 7.99 µM); MIC [13, 27]: < 0.03 µg/mL; MIC [14, 28]: < 0.03 µg/mL; MIC [17, 31]: < 0.03 µg/mL
2 | CCCn1nc(-c2ncc([N+](=O)[O-])n2C)c(C#N)c1N [Compound 22, 5-Amino-1-(n-propyl)-3-(1-methyl-5-nitro-2-imidazolyl)pyrazole-4-carbonitrile] | < 0.125 µg/mL | – | – | < 0.125 µg/mL | < 0.125 µg/mL | – | > 32 µg/mL | – | – | 1 µg/mL (≈ 3.63 µM) | < 0.125 µg/mL | < 0.125 µg/mL | < 0.125 µg/mL | < 0.125 µg/mL | < 0.125 µg/mL | < 0.125 µg/mL | < 0.125 µg/mL | < 0.125 µg/mL | < 0.125 µg/mL | < 0.125 µg/mL | MIC (Clostridium ramosum 1313; [32]): < 0.125 µg/mL; MIC [8]: < 0.125 µg/mL; MIC ([12]; Veillonella parvula, 1, 24 h): < 0.125 µg/mL; MIC ([15]; Bacteroides fragilis): < 0.125 µg/mL
3 | CC[C@H]1OC(=O)[C@H](C)[C@@H](O[C@H]2C[C@@](C)(OC)[C@@H](O)[C@H](C)O2)[C@H](C)[C@@H](O[C@@H]2O[C@H](C)C[C@H](N(C)C)[C@H]2O)[C@](C)(O)C[C@@H](C)C(=O)[C@H](C)[C@@H](O)[C@]1(C)O [Erythromycin, erythromycin, reference compound] | < 0.5 µg/mL | > 128 µg/mL | – | 1 µg/mL (≈ 1.36 µM) | < 0.5 µg/mL | – | – | 1 µg/mL (≈ 1.36 µM) | – | – | < 0.5 µg/mL | 4 µg/mL (≈ 5.45 µM) | 2 µg/mL (≈ 2.73 µM) | < 0.5 µg/mL | > 128 µg/mL | 4 µg/mL (≈ 5.45 µM) | 1 µg/mL (≈ 1.36 µM) | 1 µg/mL (≈ 1.36 µM) | 2 µg/mL (≈ 2.73 µM) | 2 µg/mL (≈ 2.73 µM) | MIC [8]: 1 µg/mL (≈ 1.36 µM); MIC ([9]; Cutibacterium acnes, 44, 24 h): < 0.5 µg/mL; MIC ([15]; Bacteroides fragilis): 4 µg/mL (≈ 5.45 µM); MIC ([16]; Peptostreptococcus, 1264, 24 h): 8 µg/mL (≈ 10.9 µM)
4 | CCn1nc(-c2ncc([N+](=O)[O-])n2C)c(C#N)c1N [Compound 16, 5-Amino-1-ethyl-3-(1-methyl-5-nitro-2-imidazolyl)pyrazole-4-carbonitrile] | < 0.125 µg/mL | – | – | < 0.125 µg/mL | < 0.125 µg/mL | 1 µg/mL (≈ 3.83 µM) | > 32 µg/mL | – | 0.25 µg/mL (≈ 0.957 µM) | 2 µg/mL (≈ 7.66 µM) | < 0.125 µg/mL | < 0.125 µg/mL | < 0.125 µg/mL | < 0.125 µg/mL | < 0.125 µg/mL | < 0.125 µg/mL | < 0.125 µg/mL | < 0.125 µg/mL | < 0.125 µg/mL | < 0.125 µg/mL | MIC (Clostridium ramosum 1313; [32]): < 0.125 µg/mL; MIC ([12]; Veillonella parvula, 1, 24 h): < 0.125 µg/mL
5 | Cn1nc(-c2ncc([N+](=O)[O-])n2C)c(C(=O)O)c1N [Compound 10A, 5-amino-1-methyl-3-(1-methyl-5-nitro-2-imidazolyl)pyrazole-4-carboxylic acid] | 0.5 µg/mL (≈ 1.88 µM) | 4 µg/mL (≈ 15 µM) | < 0.125 µg/mL | 1 µg/mL (≈ 3.76 µM) | 1 µg/mL (≈ 3.76 µM) | 8 µg/mL (≈ 30.1 µM) | > 32 µg/mL | < 0.125 µg/mL | 8 µg/mL (≈ 30.1 µM) | 16 µg/mL (≈ 60.1 µM) | – | – | – | – | – | – | – | – | – | – | MIC [3, 20]: 0.5 µg/mL (≈ 1.88 µM); MIC [4, 21]: 0.25 µg/mL (≈ 0.939 µM); MIC [7, 22]: 0.5 µg/mL (≈ 1.88 µM); MIC [10, 24]: 0.5 µg/mL (≈ 1.88 µM); MIC [11, 25]: 0.25 µg/mL (≈ 0.939 µM); MIC (Actinomyces bovis 13684; 24 h, Actinomyces bovis 13684): 4 µg/mL (≈ 15 µM); MIC [13, 27]: < 0.5 µg/mL; MIC [14, 28]: 0.25 µg/mL (≈ 0.939 µM); MIC [17, 31]: < 0.125 µg/mL
